Measured values from ChEMBL document CHEMBL1201862, “PubChem BioAssay data set” (2004).
Calls of active or inactive are those of the source.

Assays:
HEK293 [1] = assay: NOD1 signaling inhibitors, primary screen, cell-based, luminescence, uHTS (AID 1578); assay type: functional; settings: Homo sapiens
HEK293 [2] = assay: cells; assay type: functional, cell-based; settings: Homo sapiens
HEK293 [3] = assay: cells; assay type: functional, cell-based; settings: Homo sapiens; remark: listed apart in the source
[4] = Shn3 3'UTR reporter inhibitors, dose response, cell-based, Clone20 osteoblasts, firefly luciferase, cherry-picked (AID 624132); assay type: functional;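 also: firefly luciferase luminescence from reporter carrying the Shn3 3'UTR in osteoblasts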
[5] = HepG2 cell cytotoxicity, dose response, cytotoxicity control for Shn3 inhibitor project, CellTiter-Glo, cherry-picked (AID 624134); assay type: functional, cell-based
[6] = control 3'UTR Renilla luciferase suppression, dose response, counter-screen for Shn3 inhibitor project, cell-based, Clone20-Shn3RL, cherry-picked (AID 624133); assay type: functional
cells = assay type: functional
[7] = THP-1 cell cytotoxicity, dose response, cytotoxicity control for non-replicating M. tuberculosis project (AID 489025); assay type: functional
[8] = Luminescent dose response cell-based high throughput screening assay for inhibitors of the Janus kinase 2 mutant JAK2V617F. [Related pubchem assays: 1446 (Primary screen.), 1521 (Confirmation assay.), 1486 (Counter screen.)]; assay type: functional
Hexokinase HKDC1 = molecular target: T1, Hexokinase HKDC1 (Homo sapiens, UniProt Q2TB90); assay: HKDC1 hexokinase inhibitors, dose response, biochemical, W721R variant (AID 504729); assay type: functional
T1 sequence (Q2TB90 whole entry): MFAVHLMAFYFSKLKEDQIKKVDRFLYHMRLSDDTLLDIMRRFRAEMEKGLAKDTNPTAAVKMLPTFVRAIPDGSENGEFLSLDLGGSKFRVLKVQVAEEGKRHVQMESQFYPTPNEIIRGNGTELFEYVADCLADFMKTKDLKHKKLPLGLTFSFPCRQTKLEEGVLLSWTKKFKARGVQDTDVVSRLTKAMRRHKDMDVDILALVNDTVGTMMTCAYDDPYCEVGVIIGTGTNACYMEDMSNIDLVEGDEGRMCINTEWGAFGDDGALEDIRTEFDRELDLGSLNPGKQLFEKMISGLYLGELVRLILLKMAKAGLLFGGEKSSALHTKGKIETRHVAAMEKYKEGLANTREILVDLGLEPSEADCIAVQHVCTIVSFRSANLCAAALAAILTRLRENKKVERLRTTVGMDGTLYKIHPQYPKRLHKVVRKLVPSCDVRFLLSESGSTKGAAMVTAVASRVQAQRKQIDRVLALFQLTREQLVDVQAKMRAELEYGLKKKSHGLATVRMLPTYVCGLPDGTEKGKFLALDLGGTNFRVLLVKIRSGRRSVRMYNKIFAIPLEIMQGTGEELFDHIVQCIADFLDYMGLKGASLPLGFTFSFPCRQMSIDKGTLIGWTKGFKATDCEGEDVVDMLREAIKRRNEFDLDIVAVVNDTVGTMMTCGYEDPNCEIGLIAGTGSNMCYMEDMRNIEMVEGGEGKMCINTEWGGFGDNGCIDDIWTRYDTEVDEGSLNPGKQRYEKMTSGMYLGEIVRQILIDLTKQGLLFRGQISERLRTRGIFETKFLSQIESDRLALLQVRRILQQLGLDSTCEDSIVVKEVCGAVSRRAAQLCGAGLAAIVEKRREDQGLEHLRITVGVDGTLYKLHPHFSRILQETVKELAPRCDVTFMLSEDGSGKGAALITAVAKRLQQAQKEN

[9] = microbe, parasite or virus in culture; assay type: functional; settings: Mycobacterium tuberculosis
[10] = Luminescence Cell-Based Dose Retest to Confirm Inhibitors of Cancer Stem Cells. [Related pubchem assays (depositor defined):AID2717, AID2721]; assay type: functional; settings: Homo sapiens
HEK293 [11] = assay: NOD2 signaling inhibitors in MDP-stimulated cells, cell-based, uHTS, luminescence (AID 2001); assay type: functional; settings: Homo sapiens
[12] = Vero E6 cell cytotoxicity, dose response, cytotoxicity control for non-replicating M. tuberculosis project, secondary assay (AID 492998); assay type: functional, VeroE6; settings: Vero C1008
Vero = assay: cells; assay type: functional, cell-based; settings: Chlorocebus sabaeus
HEK293 [13] = assay: cells; settings: Homo sapiens
HEK293 [14] = assay: cells; settings: Homo sapiens; remark: listed apart in the source
[15] = insulin promoter down-regulators in MIN6 cells, imaging, high-content screening, mouse beta cells (AID 1628); assay type: functional
[16] = cytotoxicity in MIN6 insulinoma cells, dose response, cytotoxicity control, cell-based, mouse insulinoma (AID 2122); assay type: functional;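 also: confirmatory high-throughput counterscreen run to flag cytotoxic compounds; mouse MIN-6 beta cells carrying an insulin promoter eGFP reporter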

Cc1nc([N+](=O)[O-])c(Br)n1CC(=O)c1ccc2ccccc2c1
inactive: IC50 (HEK293 [2]) > 20 µM | IC50 (Hexokinase HKDC1) 20.6 µM
active: EC50 (HEK293 [1]) 17.6 µM | IC50 (HEK293 [3]) 3.46 µM | AC50 [4] 10.7 µM | AC50 [5] 63.7 µM | AC50 [6] 3.22 µM | IC50 (cells) 10.1 µM | CC50 [7] 17.4 µM | IC50 [8] 1.88 µM | CC50 [9] 16 µM | AC50 [10] 4.44 µM | IC50 (HEK293 [11]) 3.77 µM | CC50 [12] 16.3 µM

Oc1nc(SCc2nc(O)c3cnn(-c4ccccc4)c3n2)nc2ccccc12
active: IC50 (Vero) 1.08 µM

CC(C)(C)N1C(=O)[C@H]2[C@@H](c3ccc(Br)cc3)N3C(=O)N(c4ccccc4)C(=O)[C@@]3(Cc3ccccc3)[C@H]2C1=O
inactive: EC50 (HEK293 [13]) > 59.6 µM | EC50 (HEK293 [14]) > 59.6 µM

Cc1cc(NC(=O)CCc2ccc(S(=O)(=O)N3CCOCC3)cc2)n(-c2ccccc2)n1
active: IC50 [15] 2 µM | IC50 [16] 1.53 µM
